One series in a line: Rat PK. It counts as in vivo. The settings on record: po, male SD rats, 5 mg/kg p.o., suspended in 0.5% methylcellulose in water, plasma. The protocol:
Each test compounds was suspended in 0.5% methylcellulose in water.
Grouping male SD rats was administered with test compound at a dose of 5 mg/kg by oral. After administering, blood samples were collected at time points of 0.50, 1.0, 2.0, 4.0, 6.0, 8.0 and 24.0 h. Standard curve was plotted based on concentrations of the samples in a suitable range, and the concentration of test compounds in plasma samples were determined by using LC-MS/MS. Pharmacokinetic parameters were calculated according to plasma concentration-time curve by Phoenix WinNonLin 6.1 software.

The target in series [1] is T1, IDO (Homo sapiens, UniProt P14902).
T1 construct: endogenous in cells; host or cells: HeLa cells stimulated with recombinant human interferon-gamma
Nature of the series: IDO Cell-Based LC/MS Assay. The settings on record: Hela cells, 100 ng/mL recombinant human interferon-gamma, 20 hours, LC/MS readout. The source says: IDO Cell-Based LC/MS Assay
Materials: RPMI 1640 (phenol red free) (Invitrogen Cat. No. 11835030), Fetal Bovine Serum (Invitrogen Cat. No. 10099141), Penicillin-Streptomycin (Invitrogen Gibco Cat. No. 15140-122), recombinant human interferon-gamma (R&D system, Cat. No. 285-IF-100), 5% (w/v) trichloroacetic acid (Alfa Aesar Cat. No. All 156), DMSO (Sigma, Cat. No. D2650), 96 wells_compound plate (Axygen, Cat. No. WIPP02280), 96 wells_assay plate (Greiner, Cat. No. 655090)
The concentrations of test compounds varied from 5 μM to 0.76 nM with 3-fold dilution, 9 points, in duplicates.
Hela cells were seeded at 40,000 cells per well with RPMI/phenol red free media containing 10% FBS in a 96-well tissue culture plate. After adding compound to cells, 100 ng/mL of recombinant human interferon-gamma was added to activate IDO signaling. The cells were incubated for 20 hours in 37° C. incubator with 5% CO2. Compound treatment was stopped by adding 5% trichloroacetic acid. Subsequently, the cell plate was further incubated at 50° C. for 30 minutes. After precipitation, the supernatant was collected and measured by triple quadrupole mass spectrometer (AB Sciex 4000), coupled with HPLC Shimadzu EC 20 AD and autosampler CTC PAL. Curves are fit by XLFIT5 as % inhibition vs. log [compound concentration] using a 4 parameters logistic model 205.
(§1) Select compounds prepared as described above were assayed according to the biological procedures described herein.

The target of series [2] is T1, IDO. Briefly: IDO Cell-Based NEK Green Assay (NFK Green, N-formyl kynurenine level). The settings on record: Hela cells, 1 mM L-Tryptophan, 100 ng/mL recombinant human interferon-gamma, 2 days, NFK Green fluorescence. On the procedure: IDO Cell-Based NEK Green Assay
Materials: RPMI 1640 (phenol red free) (Invitrogen Cat. No. 11835030), Fetal Bovine Serum (Invitrogen Cat. No. 10099141), Penicillin-Streptomycin (Invitrogen Gibco Cat. No. 15140-122), Cellular assay kit (NTRC, Cat. No. NTRC-GSCell-1K), DMSO (Sigma, Cat. No. D2650), 384 wells_compound plate (Greiner, Cat. No. 781280), 384 wells_assay plate (Greiner, Cat. No. 781091)
The concentrations of test compounds varied from 5 μM to 0.76 nM with 3-fold dilution, 10 points, in duplicates.
Hela cells were seeded at 8,000 cells per well with RPMI/phenol red free media containing 10% FBS in a 384-well tissue culture plate. Mixture of compounds and 1 mM L-Tryptophan were added to cells; and then the recombinant human interferon-gamma was added at the final concentration of 100 ng/mL to activate IDO signaling. The cells were incubated for 2 days in 37° C. incubator with 5% CO2. After that, NFK Green was used to detect the N-formyl kynurenine level by following the commercial kit instruction. The fluorescent signal was measured by Envision plate Reader (excitation, 400/25; emission, 510/20). Curves are fit by XLFIT5 as % inhibition vs. log [compound concentration] using a 4 parameters logistic model 205.
as §1

This note sets out measurements from US11168078B2, “Sulfoximine, sulfonimidamide, sulfondiimine and diimidosulfonamide compounds as inhibitors of indoleamine 2,3-dioxygenase” (Shanghai Fochon Pharmaceutical Co., Ltd., priority 2016, dated 2021).

T1 sequence (P14902 whole entry): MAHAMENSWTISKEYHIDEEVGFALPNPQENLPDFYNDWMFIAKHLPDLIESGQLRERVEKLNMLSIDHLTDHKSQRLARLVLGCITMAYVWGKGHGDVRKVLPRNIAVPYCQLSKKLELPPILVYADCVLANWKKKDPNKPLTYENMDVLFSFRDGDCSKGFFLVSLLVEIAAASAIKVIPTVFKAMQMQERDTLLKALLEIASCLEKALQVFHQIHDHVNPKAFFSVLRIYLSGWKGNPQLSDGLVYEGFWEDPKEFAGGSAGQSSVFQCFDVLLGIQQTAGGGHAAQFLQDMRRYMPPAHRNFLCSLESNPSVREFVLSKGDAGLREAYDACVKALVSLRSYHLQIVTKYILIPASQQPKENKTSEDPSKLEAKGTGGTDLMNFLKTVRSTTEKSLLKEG

For the molecule `CS(C)(=O)=NCCNc1nonc1/C(=N/O)Nc1ccc(F)c(Br)c1` [Example 1, (Z)—N-(3-bromo-4-fluorophenyl)-4-((2-((dimethyl(oxo)-λ^6-sulfanylidene)amino)ethyl)amino)-N′-hydroxy-1,2,5-oxadiazole-3-carboximidamide], in the series “Rat PK”, the AUC(0-inf) (as a rule, the area under the concentration-time curve extrapolated to infinity) came to 4030 ng·h/mL; the AUC(0-t) – broadly, exposure summed from dosing to a finite time, without extrapolation to infinity – was 3840 ng·h/mL; the Cmax (as a rule, the highest concentration seen after dosing) is 1500 ng/mL; the half-life (commonly how long it takes for the measured level to halve) was 3.83 h. For the same molecule, at IDO [1], the IC50 (usually the midpoint of a concentration-inhibition curve) turned out to be 54 nM.

For `CCS(=O)(CC)=NCCNc1nonc1/C(=N/O)Nc1ccc(F)c(Br)c1` [Example 2, (Z)—N-(3-bromo-4-fluorophenyl)-4-((2-((diethyl(oxo)-λ^6-sulfanylidene)amino)ethyl)amino)-N′-hydroxy-1,2,5-oxadiazole-3-carboximidamide], the IC50 at IDO [1] came to 270 nM.

For `O=S1(=NCCNc2nonc2/C(=N/O)Nc2ccc(F)c(Br)c2)CCOCC1` [Example 3, (Z)—N-(3-bromo-4-fluorophenyl)-N′-hydroxy-4-((2-((4-oxido-1,4λ^6-oxathian-4-ylidene)amino)ethyl)amino)-1,2,5-oxadiazole-3-carboximidamide], the IC50 on IDO [1] amounted to 153 nM.

`O=S1(=NCCNc2nonc2/C(=N/O)Nc2ccc(F)c(Br)c2)CCCCC1` [Example 4, (Z)—N-(3-bromo-4-fluorophenyl)-N′-hydroxy-4-((2-((1-oxidotetrahydro-2H-1λ^6-thiopyran-1-ylidene)amino)ethyl)amino)-1,2,5-oxadiazole-3-carboximidamide]: the IC50 at IDO [1] amounted to 477 nM.

As for `O=S1(=NCCNc2nonc2/C(=N/O)Nc2ccc(F)c(Br)c2)CCCC1` [Example 5, (Z)—N-(3-bromo-4-fluorophenyl)-N′-hydroxy-4-((2-((1-oxidotetrahydro-1λ^6-thiophen-1-ylidene)amino)ethyl)amino)-1,2,5-oxadiazole-3-carboximidamide], the IC50 at IDO [1] amounted to 195 nM.

Consider `CS(=N)(=O)NCCNc1nonc1C(=NO)Nc1ccc(F)c(Br)c1` (stereo not drawn) [Example 6, (Z)—N-(3-bromo-4-fluorophenyl)-N′-hydroxy-4-((2-(methylsulfonoimidamido)ethyl)amino)-1,2,5-oxadiazole-3-carboximidamide], for which the IC50 at IDO [1] is 63.7 nM.

In the case of `CCS(=N)(=O)NCCNc1nonc1C(=NO)Nc1ccc(F)c(Br)c1` (stereo not drawn) [Example 7, (Z)—N-(3-bromo-4-fluorophenyl)-4-((2-(ethylsulfonoimidamido)ethyl)amino)-N′-hydroxy-1,2,5-oxadiazole-3-carboximidamide], in “Rat PK”, the AUC(0-inf) was 1450 ng·h/mL, the AUC(0-t) stood at 1440 ng·h/mL, the Cmax was determined as 496 ng/mL and the half-life was 3.47 h. Moreover, at IDO [1], the IC50 was found to be 6.6 nM.

Turning to `CS(=N)(=O)NCCCNc1nonc1C(=NO)Nc1ccc(F)c(Br)c1` (stereo not drawn) [Example 8, (Z)—N-(3-bromo-4-fluorophenyl)-N′-hydroxy-4-((3-(methylsulfonoimidamido)propyl)amino)-1,2,5-oxadiazole-3-carboximidamide], the IC50 at IDO [1] turned out to be 18.6 nM.

As to `CC(CNc1nonc1/C(=N/O)Nc1ccc(F)c(Br)c1)NS(C)(=N)=O` (stereo not drawn) [Example 9, (Z)—N-(3-bromo-4-fluorophenyl)-N′-hydroxy-4-((2-(methylsulfonoimidamido)propyl)amino)-1,2,5-oxadiazole-3-carboximidamide], on IDO [1], the IC50 came to 123 nM.

As to `CC(CNS(C)(=N)=O)Nc1nonc1/C(=N/O)Nc1ccc(F)c(Br)c1` (stereo not drawn) [Example 10, (Z)—N-(3-bromo-4-fluorophenyl)-N′-hydroxy-4-((1-(methylsulfonoimidamido)propan-2-yl)amino)-1,2,5-oxadiazole-3-carboximidamide], the IC50 at IDO [1] was determined as 244 nM.

In the case of `CN=S(C)(=O)NCCNc1nonc1C(=NO)Nc1ccc(F)c(Br)c1` (stereo not drawn) [Example 11, (Z)—N-(3-bromo-4-fluorophenyl)-N′-hydroxy-4-((2-(N′-methylmethylsulfonoamidimidamido)ethyl)amino)-1,2,5-oxadiazole-3-carboximidamide], the IC50 on IDO [1] was found to be 40 nM.

In the case of `CS(=N)(=O)NCCNc1nonc1/C(=N/O)Nc1ccc(F)c(Cl)c1` (stereo not drawn) [Example 12, (Z)—N-(3-chloro-4-fluorophenyl)-N′-hydroxy-4-((2-(methylsulfonoimidamido)-ethyl)amino)-1,2,5-oxadiazole-3-carboximidamide], the IC50 at IDO [1] came out at 12.3 nM.

For `CS(=N)(=O)NCCNc1nonc1/C(=N/O)Nc1ccc(F)c(C#N)c1` (stereo not drawn) [Example 13, (Z)—N-(3-cyano-4-fluorophenyl)-N′-hydroxy-4-((2-(methylsulfonoimidamido)-ethyl)amino)-1,2,5-oxadiazole-3-carboximidamide], at IDO [1], the IC50 came out at 311 nM.

In the case of `CS(=N)(=O)NCCNc1nonc1/C(=N/O)Nc1ccc(F)c(C(F)(F)F)c1` (stereo not drawn) [Example 14, (Z)—N-(4-fluoro-3-(trifluoromethyl)phenyl)-N′-hydroxy-4-((2-(methylsulfonoamidimidamido)ethyl)amino)-1,2,5-oxadiazole-3-carboximidamide], the IC50 on IDO [1] stood at 20.1 nM.

Turning to `CS(=N)(=O)NCCNc1nonc1/C(=N/O)Nc1cccc(C(F)(F)F)c1` (stereo not drawn) [Example 15, (Z)—N′-hydroxy-4-((2-(methylsulfonoamidimidamido)ethyl)amino)-N-(3-(trifluoromethyl)phenyl)-1,2,5-oxadiazole-3-carboximidamide], the IC50 on IDO [1] turned out to be 54.3 nM.

`CCS(=N)(=O)NCCNc1nonc1/C(=N/O)Nc1cccc(C(F)(F)F)c1` (stereo not drawn) [Example 16, (Z)-4-((2-(ethylsulfonoimidamido)ethyl)amino)-N′-hydroxy-N-(3-(trifluoromethyl)phenyl)-1,2,5-oxadiazole-3-carboximidamide]: the IC50 on IDO [1] stood at 298 nM.

In the case of `CS(C)(=O)=NCCNc1nonc1/C(=N/O)Nc1ccc(F)c(Cl)c1` [Example 28, (Z)-N-(3-chloro-4-fluorophenyl)-4-((2-((dimethyl(oxo)-λ^6-sulfanylidene)amino)ethyl)amino)-N′-hydroxy-1,2,5-oxadiazole-3-carboximidamide], in “Rat PK”, the AUC(0-inf) was 1120 ng·h/mL, the AUC(0-t) is 1100 ng·h/mL, the Cmax was 469 ng/mL and the half-life was 1.19 h. For the same molecule, on IDO [2], the IC50 was determined as 14.5 nM.

In the series “Rat PK”, `NS(=O)(=O)NCCNc1nonc1C(=NO)Nc1ccc(F)c(Br)c1` [Reference Compound 1, (Z)—N-(3-bromo-4-fluorophenyl)-N′-hydroxy-4-((2-(sulfamoylamino)ethyl)amino)-1,2,5-oxadiazole-3-carboximidamide, reference compound] had an AUC(0-inf) of 924 ng·h/mL, an AUC(0-t) of 880 ng·h/mL, a Cmax of 169 ng/mL and a half-life of 2.48 h.
